{
  "source": "patent US6783949B1",
  "about": "“Processes for determining whether a test substance contains lipases or lipase inhibitors” (Aventis Pharma Deutschland GmbH, priority 1999, dated 2004)",
  "type_in_all_cases": "biochemical",
  "key": {"PLA2 from snake venom": {"tested_on": "PLA2 from snake venom", "experiment": "Cleavage of NAG by PLA2", "settings": "60 min, NAG 0.05 mg/ml"}, "[1]": {"molecular_target": "PC-specific phospholipase from Bacillus cereus (Bacillus cereus, UniProt P09598)", "sequence (P09598 39-283 limits assumed)": "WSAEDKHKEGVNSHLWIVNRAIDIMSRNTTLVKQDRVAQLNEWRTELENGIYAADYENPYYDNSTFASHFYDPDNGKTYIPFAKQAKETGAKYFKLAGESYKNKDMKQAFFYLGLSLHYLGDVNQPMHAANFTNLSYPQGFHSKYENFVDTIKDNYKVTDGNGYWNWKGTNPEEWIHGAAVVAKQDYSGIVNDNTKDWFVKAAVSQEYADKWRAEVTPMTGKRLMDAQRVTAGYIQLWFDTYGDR", "settings": "for Increase in the absorption at 481 nm: PLC, 60 min, NAG 0.05 mg/ml"}, "lipases, preferably HSL": {"molecular_target": "T1, lipases, preferably HSL (Rattus norvegicus, UniProt P15304)", "T1 sequence (P15304 1-768 isoform P15304-2)": "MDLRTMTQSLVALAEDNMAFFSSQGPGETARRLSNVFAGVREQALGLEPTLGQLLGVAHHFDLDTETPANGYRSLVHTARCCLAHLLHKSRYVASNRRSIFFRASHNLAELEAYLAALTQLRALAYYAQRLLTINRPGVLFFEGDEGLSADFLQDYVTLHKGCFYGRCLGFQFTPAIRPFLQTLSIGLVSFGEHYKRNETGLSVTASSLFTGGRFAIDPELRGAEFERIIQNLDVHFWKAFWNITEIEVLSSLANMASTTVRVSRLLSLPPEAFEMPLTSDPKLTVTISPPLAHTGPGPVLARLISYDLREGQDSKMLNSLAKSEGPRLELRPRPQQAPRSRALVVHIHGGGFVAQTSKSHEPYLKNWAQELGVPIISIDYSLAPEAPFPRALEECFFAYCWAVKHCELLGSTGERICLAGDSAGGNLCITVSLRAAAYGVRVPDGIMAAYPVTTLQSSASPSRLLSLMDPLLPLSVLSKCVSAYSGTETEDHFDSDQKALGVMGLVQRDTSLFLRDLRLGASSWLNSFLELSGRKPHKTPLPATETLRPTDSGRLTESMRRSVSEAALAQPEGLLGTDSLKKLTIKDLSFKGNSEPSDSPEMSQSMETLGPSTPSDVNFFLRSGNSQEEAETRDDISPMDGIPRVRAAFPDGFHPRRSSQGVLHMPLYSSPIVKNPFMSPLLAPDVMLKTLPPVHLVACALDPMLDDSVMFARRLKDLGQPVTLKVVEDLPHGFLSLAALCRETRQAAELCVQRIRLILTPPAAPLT", "experiment": "Synthesized NBD-acylglycerides as substrates of lipases"}},
  "note": "Like-named read-outs stand apart in the source and are kept apart here.",
  "data": [
    {"molecule": "O=C(CCCCCCCCCCCNc1ccc([N+](=O)[O-])c2nonc12)OCC(O)CO", "note": "(stereo not shown) [Compound (3)]", "values": [
      {"measurement": "Increase in the absorption at 481 nm", "setting": "PLA2 from snake venom; PLA2, enzyme 10 arb. units", "result": "1 ± 1", "unit": "arb. units"},
      {"measurement": "Increase in the absorption at 481 nm", "setting": "PLA2 from snake venom; PLA2, enzyme 20 arb. units", "result": "3 ± 2", "unit": "arb. units"},
      {"measurement": "Increase in the absorption at 481 nm", "setting": "PLA2 from snake venom; PLA2, enzyme 50 arb. units", "result": "5 ± 1", "unit": "arb. units"},
      {"measurement": "Increase in the absorption at 481 nm", "setting": "PLA2 from snake venom; PLA2, enzyme 75 arb. units", "result": "8 ± 2", "unit": "arb. units"},
      {"measurement": "Increase in the absorption at 481 nm", "setting": "PLA2 from snake venom; PLA2, enzyme 100 arb. units", "result": "10 ± 2", "unit": "arb. units"},
      {"measurement": "Increase in the absorption at 481 nm", "setting": "PLA2 from snake venom; PLA2, enzyme 150 arb. units", "result": "26 ± 6", "unit": "arb. units"},
      {"measurement": "Increase in the absorption at 481 nm", "setting": "PLA2 from snake venom; PLA2, enzyme 200 arb. units", "result": "35 ± 9", "unit": "arb. units"},
      {"measurement": "Increase in the absorption at 481 nm", "setting": "PLA2 from snake venom; PLA2, enzyme 250 arb. units", "result": "46 ± 12", "unit": "arb. units"},
      {"measurement": "Increase in the absorption at 481 nm", "setting": "PLA2 from snake venom; PLA2, enzyme 300 arb. units", "result": "54 ± 9", "unit": "arb. units"},
      {"measurement": "Increase in the absorption at 481 nm", "setting": "PLA2 from snake venom; PLA2, enzyme 400 arb. units", "result": "75 ± 11", "unit": "arb. units"},
      {"measurement": "Increase in the absorption at 481 nm", "setting": "[1]; enzyme 10 arb. units", "result": 0, "unit": "arb. units"},
      {"measurement": "Increase in the absorption at 481 nm", "setting": "[1]; enzyme 20 arb. units", "result": "1 ± 1", "unit": "arb. units"},
      {"measurement": "Increase in the absorption at 481 nm", "setting": "[1]; enzyme 50 arb. units", "result": "2 ± 2", "unit": "arb. units"},
      {"measurement": "Increase in the absorption at 481 nm", "setting": "[1]; enzyme 75 arb. units", "result": "2 ± 1", "unit": "arb. units"},
      {"measurement": "Increase in the absorption at 481 nm", "setting": "[1]; enzyme 100 arb. units", "result": "3 ± 1", "unit": "arb. units"},
      {"measurement": "Increase in the absorption at 481 nm", "setting": "[1]; enzyme 150 arb. units", "result": "3 ± 1", "unit": "arb. units"},
      {"measurement": "Increase in the absorption at 481 nm", "setting": "[1]; enzyme 200 arb. units", "result": "5 ± 2", "unit": "arb. units"},
      {"measurement": "Increase in the absorption at 481 nm", "setting": "[1]; enzyme 250 arb. units", "result": "5 ± 2", "unit": "arb. units"},
      {"measurement": "Increase in the absorption at 481 nm", "setting": "[1]; enzyme 300 arb. units", "result": "7 ± 3", "unit": "arb. units"},
      {"measurement": "Increase in the absorption at 481 nm", "setting": "[1]; enzyme 400 arb. units", "result": "10 ± 3", "unit": "arb. units"},
      {"measurement": "Activity relative to HSL", "setting": "[1]; bacterial PC-specific phospholipase, conditions optimized for HSL", "result": "virtually inactive"},
      {"measurement": "Activity as substrate of lipases", "setting": "lipases, preferably HSL", "result": "“best” substrate"}
    ]}
  ]
}
